Measured values from the NIST ThermoML archive (doi:10.1016/j.jct.2013.07.025).
± gives the expanded uncertainty stated by the source.

What was measured:
[1] = Crystal; DTA
[2] = Molar enthalpy of transition or fusion; conditions: Crystal; DSC

SMILES | Normal melting temperature [1] | Molar enthalpy of transition or fusion [2]
C[N+](C)(C)CCOC(=O)CCC(=O)O.[Cl-] [hydrogen choline chloride succinate] | 147.40 ± 0.96 °C | 8.87 ± 0.502 kcal/mol
CC(=O)[O-].C[N+](C)(C)CCO [choline acetate] | 67.60 ± 0.96 °C | 3.94 ± 0.454 kcal/mol
